IC50 data for four compounds are collected here from ChEMBL document CHEMBL4477252, “Optimization of microtubule affinity regulating kinase (MARK) inhibitors with improved physical properties” (Bioorg Med Chem Lett, 2016).

As usually defined, the IC50 is the concentration needed to halve the response being measured.

Test [1] deals with NT-3 growth factor receptor (Homo sapiens, UniProt Q16288). Put plainly: Inhibition of recombinant human His-tagged cytoplasmic NTRK3 expressed in baculovirus expression system by Z'-LYTE assay.
For test [2], the target named is Hepatocyte growth factor receptor (Homo sapiens, UniProt P08581). Put plainly: Inhibition of recombinant human N-terminal His-tagged cytoplasmic MET (956 to 1390 residues) expressed in baculovirus expression system by Z'-LYTE assay.
Test [3] has as its target Mast/stem cell growth factor receptor Kit (Homo sapiens, UniProt P10721). Nature of the test: Inhibition of recombinant human His-tagged cytoplasmic KIT expressed in baculovirus expression system by Z'-LYTE assay.
The target in test [4] is Serine/threonine-protein kinase N1 (Homo sapiens, UniProt Q16512). Put plainly: Inhibition of full-length recombinant human GST-tagged PKN1 expressed in baculovirus expression system by Z'-LYTE assay.
For another test, the target named is T1, Activin receptor type-1B (Homo sapiens, UniProt P36896).
T1 sequence (P36896 whole entry): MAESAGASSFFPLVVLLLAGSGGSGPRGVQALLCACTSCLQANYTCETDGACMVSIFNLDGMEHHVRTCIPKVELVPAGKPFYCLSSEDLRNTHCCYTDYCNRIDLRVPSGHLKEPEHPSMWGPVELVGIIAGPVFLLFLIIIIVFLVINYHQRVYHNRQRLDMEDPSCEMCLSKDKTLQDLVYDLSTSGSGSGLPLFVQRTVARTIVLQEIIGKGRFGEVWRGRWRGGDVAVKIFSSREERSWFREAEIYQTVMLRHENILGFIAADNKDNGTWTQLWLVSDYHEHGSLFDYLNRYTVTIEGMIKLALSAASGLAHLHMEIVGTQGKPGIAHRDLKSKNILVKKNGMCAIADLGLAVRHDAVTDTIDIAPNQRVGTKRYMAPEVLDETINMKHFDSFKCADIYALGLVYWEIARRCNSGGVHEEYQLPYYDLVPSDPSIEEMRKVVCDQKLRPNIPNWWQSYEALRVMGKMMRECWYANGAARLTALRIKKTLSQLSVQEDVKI
Put plainly: Inhibition of recombinant human GST-tagged ALK4 catalytic domain expressed in baculovirus expression system by Z'-LYTE assay.

In test [5] the target is G protein-coupled receptor kinase 6 (Homo sapiens, UniProt P43250). Put plainly: Inhibition of full-length recombinant human GST-tagged GRK6 expressed in baculovirus expression system by Z'-LYTE assay.
Test [6] has as its target Proto-oncogene tyrosine-protein kinase Src (Homo sapiens, UniProt P12931). Nature of the test: Inhibition of full-length recombinant human His-tagged SRC expressed in baculovirus expression system by Adapta assay.
Test [7] deals with AMP-activated protein kinase (AMPK) alpha-1/beta-1/gamma-1 (Homo sapiens, UniProt P54619+Q13131+Q9Y478). Nature of the test: Inhibition of full-length recombinant human GST and His-tagged AMPK alpha1/beta1/gamma1 expressed in baculovirus expression system by LanthaScreen assay.
In test [8] the target is RAC-gamma serine/threonine-protein kinase (Homo sapiens, UniProt Q9Y243). Put plainly: Inhibition of full-length recombinant human His-tagged AKT3 expressed in baculovirus expression system by Z'-LYTE assay.
The target in test [9] is T2, Serine/threonine-protein kinase Sgk1 (Homo sapiens, UniProt O00141).
T2 sequence (O00141 whole entry): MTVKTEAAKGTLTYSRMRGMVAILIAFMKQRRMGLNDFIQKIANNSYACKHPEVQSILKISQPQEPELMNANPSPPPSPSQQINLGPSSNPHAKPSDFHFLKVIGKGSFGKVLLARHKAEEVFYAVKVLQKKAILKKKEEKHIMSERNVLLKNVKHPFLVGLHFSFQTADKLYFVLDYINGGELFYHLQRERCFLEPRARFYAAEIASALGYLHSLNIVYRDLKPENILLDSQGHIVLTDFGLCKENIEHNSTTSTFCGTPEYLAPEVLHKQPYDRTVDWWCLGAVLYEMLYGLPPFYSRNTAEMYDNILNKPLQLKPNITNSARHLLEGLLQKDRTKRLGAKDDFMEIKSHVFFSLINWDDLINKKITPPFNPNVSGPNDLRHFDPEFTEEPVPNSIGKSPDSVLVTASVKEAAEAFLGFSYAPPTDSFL
Nature of the test: Inhibition of recombinant human GST-tagged SGK catalytic domain expressed in baculovirus expression system by Z'-LYTE assay.

The target of test [10] is Serine/threonine-protein kinase MRCK alpha (Homo sapiens, UniProt Q5VT25). Put plainly: Inhibition of recombinant human His-tagged CDC42BPA catalytic domain expressed in baculovirus expression system by Z'-LYTE assay.
Test [11] deals with Serine/threonine-protein kinase pim-1 (Homo sapiens, UniProt P11309). Put plainly: Inhibition of full-length recombinant human His-tagged PIM1 expressed in baculovirus expression system by Z'-LYTE assay.
Chain of Serine/threonine-protein kinase pim-1 (P11309 whole entry): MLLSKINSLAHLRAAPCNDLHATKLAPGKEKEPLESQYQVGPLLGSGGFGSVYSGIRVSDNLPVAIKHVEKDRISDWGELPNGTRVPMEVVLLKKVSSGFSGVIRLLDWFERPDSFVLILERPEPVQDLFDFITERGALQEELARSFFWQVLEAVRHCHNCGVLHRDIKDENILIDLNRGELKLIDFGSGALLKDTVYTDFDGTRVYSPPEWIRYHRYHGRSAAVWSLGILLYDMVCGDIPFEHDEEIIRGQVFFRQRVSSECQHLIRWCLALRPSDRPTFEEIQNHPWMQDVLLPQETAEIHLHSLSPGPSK

Chain of G protein-coupled receptor kinase 6 (P43250 whole entry): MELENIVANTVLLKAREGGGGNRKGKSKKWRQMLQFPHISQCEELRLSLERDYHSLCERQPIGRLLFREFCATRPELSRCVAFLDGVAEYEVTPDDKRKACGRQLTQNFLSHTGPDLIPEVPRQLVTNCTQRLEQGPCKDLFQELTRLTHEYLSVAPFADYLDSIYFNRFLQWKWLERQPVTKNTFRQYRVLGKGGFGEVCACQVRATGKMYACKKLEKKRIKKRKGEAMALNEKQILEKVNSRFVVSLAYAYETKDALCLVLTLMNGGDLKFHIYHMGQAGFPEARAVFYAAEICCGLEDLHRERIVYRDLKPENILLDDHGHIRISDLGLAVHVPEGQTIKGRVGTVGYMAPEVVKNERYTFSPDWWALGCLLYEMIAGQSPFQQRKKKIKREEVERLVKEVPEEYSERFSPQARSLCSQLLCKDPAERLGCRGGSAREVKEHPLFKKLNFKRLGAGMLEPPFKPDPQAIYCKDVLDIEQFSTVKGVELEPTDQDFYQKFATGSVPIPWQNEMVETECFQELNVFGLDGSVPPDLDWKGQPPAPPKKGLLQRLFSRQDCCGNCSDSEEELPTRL
Chain of Proto-oncogene tyrosine-protein kinase Src (P12931 2-536 limits assumed): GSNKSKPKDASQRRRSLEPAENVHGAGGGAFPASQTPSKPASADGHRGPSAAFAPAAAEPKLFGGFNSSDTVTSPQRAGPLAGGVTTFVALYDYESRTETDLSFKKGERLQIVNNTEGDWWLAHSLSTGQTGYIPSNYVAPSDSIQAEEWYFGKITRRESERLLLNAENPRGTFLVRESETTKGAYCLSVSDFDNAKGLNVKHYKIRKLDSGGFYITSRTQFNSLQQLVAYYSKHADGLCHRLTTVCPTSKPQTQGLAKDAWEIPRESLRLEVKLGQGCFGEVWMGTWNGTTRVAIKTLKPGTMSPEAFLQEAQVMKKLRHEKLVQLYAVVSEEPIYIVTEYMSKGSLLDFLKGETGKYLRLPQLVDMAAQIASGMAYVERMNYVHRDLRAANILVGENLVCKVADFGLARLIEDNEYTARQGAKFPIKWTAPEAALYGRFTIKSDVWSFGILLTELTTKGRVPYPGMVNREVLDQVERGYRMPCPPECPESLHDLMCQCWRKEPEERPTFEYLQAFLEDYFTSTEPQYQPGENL
Chain of Mast/stem cell growth factor receptor Kit (P10721 whole entry): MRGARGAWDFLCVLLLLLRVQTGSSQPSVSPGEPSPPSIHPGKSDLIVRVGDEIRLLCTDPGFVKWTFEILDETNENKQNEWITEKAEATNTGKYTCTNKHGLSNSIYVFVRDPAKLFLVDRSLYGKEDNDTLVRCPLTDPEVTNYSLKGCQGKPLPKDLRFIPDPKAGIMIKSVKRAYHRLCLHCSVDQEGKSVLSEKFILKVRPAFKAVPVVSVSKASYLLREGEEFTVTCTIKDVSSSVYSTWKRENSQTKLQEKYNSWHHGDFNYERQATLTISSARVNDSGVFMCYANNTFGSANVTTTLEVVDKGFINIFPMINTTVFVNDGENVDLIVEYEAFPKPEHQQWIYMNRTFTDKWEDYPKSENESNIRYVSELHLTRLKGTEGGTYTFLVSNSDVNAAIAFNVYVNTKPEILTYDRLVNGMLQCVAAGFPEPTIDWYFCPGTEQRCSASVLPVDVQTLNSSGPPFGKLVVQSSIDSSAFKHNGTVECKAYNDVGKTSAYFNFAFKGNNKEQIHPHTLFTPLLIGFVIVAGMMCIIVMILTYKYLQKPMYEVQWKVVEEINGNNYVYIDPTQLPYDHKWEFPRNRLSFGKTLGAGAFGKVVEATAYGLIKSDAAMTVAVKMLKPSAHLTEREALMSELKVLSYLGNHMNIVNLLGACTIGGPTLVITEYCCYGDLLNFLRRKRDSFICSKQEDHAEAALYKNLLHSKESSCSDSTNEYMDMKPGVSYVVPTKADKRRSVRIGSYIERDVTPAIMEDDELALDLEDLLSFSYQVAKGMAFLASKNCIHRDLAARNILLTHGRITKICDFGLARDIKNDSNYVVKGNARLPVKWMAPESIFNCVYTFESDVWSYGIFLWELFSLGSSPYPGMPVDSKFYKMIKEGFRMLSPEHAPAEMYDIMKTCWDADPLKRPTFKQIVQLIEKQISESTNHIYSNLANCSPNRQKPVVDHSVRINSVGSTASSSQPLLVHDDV
Chain of RAC-gamma serine/threonine-protein kinase (Q9Y243 whole entry): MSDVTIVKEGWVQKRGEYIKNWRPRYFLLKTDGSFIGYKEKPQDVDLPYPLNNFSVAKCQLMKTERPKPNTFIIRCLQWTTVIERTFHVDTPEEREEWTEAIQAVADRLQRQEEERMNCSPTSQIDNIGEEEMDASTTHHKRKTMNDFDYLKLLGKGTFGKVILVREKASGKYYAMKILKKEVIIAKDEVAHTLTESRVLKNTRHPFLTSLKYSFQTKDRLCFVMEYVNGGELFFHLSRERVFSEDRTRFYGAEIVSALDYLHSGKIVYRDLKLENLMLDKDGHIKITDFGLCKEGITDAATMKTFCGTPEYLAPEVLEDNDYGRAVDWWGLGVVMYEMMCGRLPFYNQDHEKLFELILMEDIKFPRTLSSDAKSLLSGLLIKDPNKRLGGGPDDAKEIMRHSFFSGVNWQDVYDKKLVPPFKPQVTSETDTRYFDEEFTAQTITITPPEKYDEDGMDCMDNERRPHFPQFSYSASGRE
Chain of AMP-activated protein kinase (AMPK) alpha-1/beta-1/gamma-1 (P54619 whole entry): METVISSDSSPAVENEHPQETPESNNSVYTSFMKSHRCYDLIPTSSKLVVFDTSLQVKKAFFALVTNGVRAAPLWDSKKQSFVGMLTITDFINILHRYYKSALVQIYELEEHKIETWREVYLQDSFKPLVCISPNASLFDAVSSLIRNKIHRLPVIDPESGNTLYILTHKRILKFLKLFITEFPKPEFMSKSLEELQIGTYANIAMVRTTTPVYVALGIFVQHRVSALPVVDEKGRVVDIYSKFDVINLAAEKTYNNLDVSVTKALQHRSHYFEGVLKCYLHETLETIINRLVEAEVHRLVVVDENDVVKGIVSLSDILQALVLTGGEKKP
Chain of AMP-activated protein kinase (AMPK) alpha-1/beta-1/gamma-1 (Q9Y478 whole entry): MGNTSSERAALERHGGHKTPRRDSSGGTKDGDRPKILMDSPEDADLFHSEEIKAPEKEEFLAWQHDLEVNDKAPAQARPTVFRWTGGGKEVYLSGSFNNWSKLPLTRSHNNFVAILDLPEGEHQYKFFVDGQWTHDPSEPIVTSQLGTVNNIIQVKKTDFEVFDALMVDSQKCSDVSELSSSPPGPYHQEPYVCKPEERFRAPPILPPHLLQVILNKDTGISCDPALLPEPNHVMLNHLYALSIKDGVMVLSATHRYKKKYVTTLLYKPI
Chain of AMP-activated protein kinase (AMPK) alpha-1/beta-1/gamma-1 (Q13131 whole entry): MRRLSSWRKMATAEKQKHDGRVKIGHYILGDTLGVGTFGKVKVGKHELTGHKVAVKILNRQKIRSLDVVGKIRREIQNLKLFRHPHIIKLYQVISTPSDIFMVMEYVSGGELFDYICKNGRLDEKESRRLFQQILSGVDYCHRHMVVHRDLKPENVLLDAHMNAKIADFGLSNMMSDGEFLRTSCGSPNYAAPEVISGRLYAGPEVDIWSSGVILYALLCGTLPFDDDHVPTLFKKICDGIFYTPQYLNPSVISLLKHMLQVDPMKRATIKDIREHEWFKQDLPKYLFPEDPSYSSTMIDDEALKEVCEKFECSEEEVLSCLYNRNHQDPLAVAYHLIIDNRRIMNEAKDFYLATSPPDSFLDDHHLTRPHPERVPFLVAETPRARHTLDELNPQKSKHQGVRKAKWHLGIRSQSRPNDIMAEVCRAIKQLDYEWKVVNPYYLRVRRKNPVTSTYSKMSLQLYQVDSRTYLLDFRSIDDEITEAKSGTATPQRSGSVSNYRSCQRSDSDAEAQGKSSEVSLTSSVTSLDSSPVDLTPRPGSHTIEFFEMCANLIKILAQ
Chain of NT-3 growth factor receptor (Q16288 whole entry, the tested form may be a part): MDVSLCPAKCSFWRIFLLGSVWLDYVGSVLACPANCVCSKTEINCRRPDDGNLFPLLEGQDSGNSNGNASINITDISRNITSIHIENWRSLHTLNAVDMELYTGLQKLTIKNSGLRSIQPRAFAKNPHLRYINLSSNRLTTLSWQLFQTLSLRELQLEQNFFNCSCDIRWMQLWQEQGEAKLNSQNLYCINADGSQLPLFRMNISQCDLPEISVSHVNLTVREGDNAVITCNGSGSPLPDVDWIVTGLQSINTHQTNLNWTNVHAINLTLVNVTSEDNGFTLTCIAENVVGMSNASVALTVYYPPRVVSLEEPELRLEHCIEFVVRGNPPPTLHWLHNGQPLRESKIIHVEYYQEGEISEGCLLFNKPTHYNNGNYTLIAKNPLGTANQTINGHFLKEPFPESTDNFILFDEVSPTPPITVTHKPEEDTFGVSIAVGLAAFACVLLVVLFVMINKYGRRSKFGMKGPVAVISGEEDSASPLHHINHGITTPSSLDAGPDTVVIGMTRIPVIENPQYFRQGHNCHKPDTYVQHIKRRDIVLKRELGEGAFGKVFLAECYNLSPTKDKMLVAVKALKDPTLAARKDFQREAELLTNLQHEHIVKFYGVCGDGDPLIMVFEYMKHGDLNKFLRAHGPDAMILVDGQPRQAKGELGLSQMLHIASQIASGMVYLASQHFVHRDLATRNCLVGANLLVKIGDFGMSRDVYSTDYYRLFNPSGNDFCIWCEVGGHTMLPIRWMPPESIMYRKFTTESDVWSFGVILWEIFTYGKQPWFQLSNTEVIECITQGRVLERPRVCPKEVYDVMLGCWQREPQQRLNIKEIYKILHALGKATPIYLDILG

As for `Cn1cc(-c2cnc3c(-c4csc(C(=O)NCC(F)(F)F)c4)cnn3c2)cn1`, the IC50 in [1] is 120 nM; in test [2] it was 4000 nM; in [3], 810 nM; in [4], 18 µM; on Activin receptor type-1B, 170 nM; in [5] it was over 100000 nM. Moreover, the IC50 in test [6] is 42 nM; in test [7], 26 nM; in test [8] it was over 100000 nM; in test [9], 63 nM; in test [10] it was 9200 nM; in test [11], 9900 nM.
In the case of `Cc1sc(C(=O)N[C@@H]2[C@H](N)CCCC2(F)F)cc1-c1cnn2cc(Cl)cnc12`, the IC50 was 1400 nM in [1]; 8500 nM in test [2]; over 100000 nM in [3]; 17 µM in [4]; over 100000 nM at Activin receptor type-1B; 1700 nM in test [5]. Further, the IC50 amounted to 8100 nM in [6]; 53 nM in [7]; 2400 nM in [8]; 810 nM in [9]; 1000 nM in test [10]; 1600 nM in test [11].
As to `O=C(NCC(F)(F)F)c1cc(-c2cnn3cc(-c4ccc(OCCN5CCCCC5)cc4)cnc23)cs1`, the IC50 amounted to 380 nM in test [1]; 1400 nM in test [2]; 2700 nM in test [3]; 3.9 µM in test [4]; 200 nM at Activin receptor type-1B; 17000 nM in test [5]. The IC50 in test [6] is 37 nM; in [7] it was under 10 nM; in test [8], over 100000 nM; in test [9] it was 27 nM; in test [10] it was 1200 nM; in test [11] it was 590 nM.
In the case of `Cn1cc(-c2cnc3c(-c4csc(C(=O)N[C@@H]5CCCC[C@@H]5N)c4)cnn3c2)cn1` (racemic), the IC50 came to 13 nM in [1]; 410 nM in test [2]; 690 nM in [3]; 0.25 µM in test [4]; 730 nM on Activin receptor type-1B; 500 nM in test [5]. Further, the IC50 in test [6] came out at 3 nM; in test [7] it was 4.6 nM; in test [8], 330 nM; in test [9] it was 200 nM; in test [10], 72 nM; in test [11] it was 2800 nM.
